These results are taken from patent US20180177778A1, “Methods for Treating HCV” (priority 2015, published 2018).

The conditions of data set [1]: human, in vivo. The procedure: All subjects received ombitasvir/paritaprevir/ritonavir 25/150/100 mg QD and dasabuvir 250 mg BID±weight based RBV. DAAs (OBV, PTV, or DSV) and RTV AUC values were available from 2093 subjects and RBV AUC values were available from 1584 subjects. The dataset included subjects with normal renal function (NF) (CrCl ≥90 mL/min, n=1495), mild renal impairment (RI) (CrCL 60-89 mL/min, n=576) and moderate RI (CrCL 30-59 mL/min, n=22). […] CrCL was retained in the models, regardless of its statistical significance, to determine the effect, if any, on the AUC values.

The conditions of data set [2]: in vivo; cited from earlier work.
Data set [3] can be described thus: Effect of food on bioavailability of co-formulated tablets, healthy Japanese subjects (Example 20). Format: in vivo, human. As to conditions: for Tmax: both sexes, mean Tmax. From the text: Japanese male and female volunteers 20 to 55 years of age in general good health with a body mass index ≥18.5 and <25 kg/m^2 were eligible to enroll. Subjects who had positive test results for hepatitis A, B, or C, or for HIV infection, and subjects who were using known inhibitors or inducers of CYP3A isozyme or organic anion transporting polypeptide 1B1 (OATP1B1) inhibitors were excluded from participation. Subjects were not to have consumed alcohol, grapefruit, star fruit, or Seville oranges within 72 hours, or to have used nicotine-containing products within 6 months before study drug administration.
This was a 2-sequence 2-period crossover study. A single dose of two ombitasvir/paritaprevir/ritonavir 12.5/75/50 mg coformulated tablets (total dose of 25/150/100 mg) was administered in the morning on Study Day 1 of each period as follows:
PK parameters for ombitasvir, paritaprevir, and ritonavir were estimated by noncompartmental methods using Phoenix WinNonlin, version 6.3 (Pharsight, A Certara® Company, St. Louis, Mo.) including maximum plasma concentration (Cmax), time to Cmax (Tmax), area under the plasma concentration-time curve (AUC), and terminal-phase elimination half-life (t1/2). The effect of food on the bioavailability of ombitasvir, paritaprevir, and ritonavir was assessed using a repeated measures analysis of natural logarithms of Cmax and AUC values. Point estimates of central value ratios and their 90% confidence intervals (CIs) for Cmax and AUC were calculated to quantify the magnitude of food effect. Statistical analyses were conducted using SAS, version 9.2 (SAS Institute, Inc., Cary, N.C.).

Data set [4] in a line: Population pharmacokinetics in HCV GT1 subjects with CKD Stage 4 or 5 (Example 17). Type of data set: in vivo, human. Particulars: vs subjects without kidney disease. On the procedure: Pharmacokinetic data from a Phase 2 study (N=38) in subjects with normal or mild renal impairment (subjects “without kidney disease”) were combined with preliminary data from a Phase 3b study in subjects with CKD Stage 4 (N=5) or Stage 5 on hemodialysis (N=14). In both studies subjects received OBV/PTV/r 25/150/100 mg QD and DSV 250 mg BID±RBV for 12 weeks. Pharmacokinetic parameters and steady-state exposures of the 3-DAA regimen were estimated using population pharmacokinetic models.

`NC(=O)c1ncn([C@@H]2O[C@H](CO)[C@@H](O)[C@H]2O)n1` [Ribavirin, ribavirin]: the “AUC values higher in mild/moderate RI compared to NF” value in data set [1] is reported as “up to 17%”. Further, the absolute bioavailability result in data set [2] is on record as “approximately 50%”.
For the compound `CC(C)c1nc(CN(C)C(=O)N[C@H](C(=O)N[C@@H](Cc2ccccc2)C[C@H](O)[C@H](Cc2ccccc2)NC(=O)OCc2cncs2)C(C)C)cs1` [ritonavir, reference compound], in data set [3] (human, in vivo), the Tmax came out at 3.4 h. Besides, in data set [3] (both, human, in vivo), the “increase of mean AUC” value is recorded as 34% and the “mean Tmax” value is 4.9 h. Further, in data set [4], the “exposures higher in CKD Stage 4 subjects” value is given as ~200% and the “exposures lower in CKD Stage 5” value was “about 33%”.
In the case of `COc1c(-c2ccc3cc(NS(C)(=O)=O)ccc3c2)cc(-n2ccc(=O)[nH]c2=O)cc1C(C)(C)C` [Compound 3, N-(6-(3-tert-butyl-5-(2,4-dioxo-3,4-dihydropyrimidin-1(2H)-yl)-2-methoxyphenyl)naphthalen-2-yl)methanesulfonamide], the “exposures lower in CKD Stage 5” value in data set [4] is reported as ~37%.
On to `Cc1cnc(C(=O)N[C@H]2CCCCC/C=C\[C@@H]3C[C@@]3(C(=O)NS(=O)(=O)C3CC3)NC(=O)[C@@H]3C[C@@H](Oc4nc5ccccc5c5ccccc45)CN3C2=O)cn1` [Compound 1, (2R,6S,13aS,14aR,16aS,Z)—N-(cyclopropylsulfonyl)-6-(5-methylpyrazine-2-carboxamido)-5,16-dioxo-2-(phenanthridin-6-yloxy)-1,2,3,5,6,7,8,9,10,11,13a,14,14a,15,16,16a-hexadecahydrocyclopropa[e]pyrrolo[1,2-a][1,4]diazacyclopentadecine-14a-carboxamide], for which, in data set [3] (human, in vivo), the Tmax was 4.2 h. For the same compound, in data set [3] (both, human, in vivo), the “increase of mean AUC” value worked out at 228% and the “mean Tmax” value came out at 5.2 h.
Turning to “dimethyl (2S,2′S)-1,1′-((2S,2′S)-2,2′-(4,4′-((2S,5S)-1-(4-tert-butylphenyl)pyrrolidine-2,5,diyl)bis(4,1-phenylene))bis(azanediyl)bis(oxomethylene)bis(pyrrolidine-2,1-diyl)bis(3-methyl-1-oxobutane-2,1-diyl)dicarbamate [Compound 2]”, the “mean Tmax” value in data set [3] (fasting conditions, single dose 25/150/100 mg) was determined as 4.4 h; in data set [3] (with a high fat meal, single dose 25/150/100 mg), 5.3 h. In addition, the “increase of mean AUC” value in data set [3] (high fat meal relative to fasting, Japanese subjects) was determined as 73%. In addition, the “exposures higher in CKD Stage 4 subjects” value in data set [4] is on record as “about 80%”.
